Our source for the T/C values is PubChem BioAssay AID328 (DTP/NCI, 2004).

Inconclusive results and toxic doses are left out.

The test system of this assay is BDF1 mice, P388 leukemia ip, median survival T/C. Briefly: NCI In Vivo Anticancer Drug Screen. Data for tumor model P388 Leukemia (intraperitoneal) in B6D2F1 (BDF1) mice. The note with it: endpoint: median survival time, higher = longer survival. In a few lines: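 Survival ratio, drug arm over vehicle arm, in mice with a transplanted tumour.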
[1] abbreviates: dose: 100.0 mg/kg/injection, schedule: Q04DX003 (ip), vehicle: saline with Tween-80.
The mark [2] stands for this setting: dose: 200.0 mg/kg/injection, schedule: Q04DX003 (ip), vehicle: saline with Tween-80.
Where [3] appears, read: dose: 400.0 mg/kg/injection, schedule: Q04DX003 (ip), vehicle: saline with Tween-80.
[4] abbreviates: dose: 50.0 mg/kg/injection, schedule: Q04DX003 (ip), vehicle: saline with Tween-80.
Setting [5] is: dose: 100.0 mg/kg/injection, schedule: Q01DX009 (ip), vehicle: saline with Tween-80.
The mark [6] stands for this setting: dose: 200.0 mg/kg/injection, schedule: Q01DX009 (ip), vehicle: saline with Tween-80.
The mark [7] stands for this setting: dose: 50.0 mg/kg/injection, schedule: Q01DX009 (ip), vehicle: saline with Tween-80.
The mark [8] stands for this setting: dose: 100.0 mg/kg/injection, schedule: Q04DX003 (ip), vehicle: saline.
Where [9] appears, read: dose: 200.0 mg/kg/injection, schedule: Q04DX003 (ip), vehicle: saline.
Setting [10] is: dose: 50.0 mg/kg/injection, schedule: Q01DX009 (ip), vehicle: saline.
[11] abbreviates: dose: 50.0 mg/kg/injection, schedule: Q04DX003 (ip), vehicle: saline.
[12] abbreviates: dose: 100.0 mg/kg/injection, schedule: Q01DX009 (ip), vehicle: saline.
[13] abbreviates: dose: 200.0 mg/kg/injection, schedule: Q01DX009 (ip), vehicle: saline.
[14] abbreviates: dose: 400.0 mg/kg/injection, schedule: Q01DX009 (ip), vehicle: saline.
[15] abbreviates: dose: 100.0 mg/kg/injection, schedule: Q04DX003 (ip), vehicle: Klucel (hydroxypropylcellulose) (HPC).
The mark [16] stands for this setting: dose: 200.0 mg/kg/injection, schedule: Q04DX003 (ip), vehicle: Klucel (hydroxypropylcellulose) (HPC).
Setting [17] is: dose: 400.0 mg/kg/injection, schedule: Q04DX003 (ip), vehicle: Klucel (hydroxypropylcellulose) (HPC).
[18] abbreviates: dose: 25.0 mg/kg/injection, schedule: Q04DX003 (ip), vehicle: saline with Tween-80.

For `O=[N+]([O-])c1ccc(N(CCO)CCO)c2c1no[n+]2[O-]`, the T/C was 112 % of control (dose: 7.5 mg/kg/injection, schedule: Q01DX009 (ip), vehicle: saline with Tween-80); 112 % of control (dose: 15.0 mg/kg/injection, schedule: Q01DX009 (ip), vehicle: saline with Tween-80); 113 % of control (dose: 30.0 mg/kg/injection, schedule: Q01DX009 (ip), vehicle: saline with Tween-80); 160 % of control (dose: 32.0 mg/kg/injection, schedule: Q04DX003 (ip), vehicle: saline with Tween-80); 121 % of control (dose: 64.0 mg/kg/injection, schedule: Q04DX003 (ip), vehicle: saline with Tween-80).

For `O=C1OCCN1/N=C\c1ccccc1`, the T/C is 95 % of control (dose: 100.0 mg/kg/injection, schedule: Q01DX001 (ip), vehicle: olive oil, sesame oil, peanut oil); 104 % of control (dose: 200.0 mg/kg/injection, schedule: Q01DX001 (ip), vehicle: olive oil, sesame oil, peanut oil); 104 % of control (dose: 400.0 mg/kg/injection, schedule: Q01DX001 (ip), vehicle: olive oil, sesame oil, peanut oil).

`Cc1cc2nc(Cc3nc4cc(C)c(C)cc4[nH]3)[nH]c2cc1C`: the T/C under setting [1] is 95 % of control, the T/C under setting [2] was 90 % of control and the T/C under setting [3] is 95 % of control.

Regarding `Cc1ccc(C)c(C(=O)C2CC2)c1`, the T/C under setting [4] is 100 % of control; the T/C under setting [5] is 100 % of control; the T/C under setting [1] was 120 % of control; the T/C (dose: 150.0 mg/kg/injection, schedule: Q01DX009 (ip), vehicle: saline with Tween-80) is 103 % of control; the T/C under setting [6] was 110 % of control; the T/C under setting [2] was 100 % of control.

Regarding `c1ccc2c(c1)-c1cccc3cccc-2c13`, the T/C is 98 % of control under setting [7], 102 % of control under setting [5] and 100 % of control under setting [6].

As for `COCOS(C)(=O)=O`, the T/C reads like this: under setting [8], 95 % of control; under setting [9], 120 % of control.

Consider `CC(=O)Oc1cccnc1C(C#N)C(C)=O` (stereo not given), for which the T/C (dose: 50.0 mg/kg/injection, schedule: Q01DX005 (ip), vehicle: saline with Tween-80) was 90 % of control; the T/C (dose: 100.0 mg/kg/injection, schedule: Q01DX005 (ip), vehicle: saline with Tween-80) was 99 % of control; the T/C (dose: 200.0 mg/kg/injection, schedule: Q01DX005 (ip), vehicle: saline with Tween-80) is 87 % of control.

`CC1(C)c2ccccc2C(=O)C1Cc1ccccc1` (stereo not given): the T/C reads like this: under setting [10], 93 % of control; under setting [11], 109 % of control; under setting [12], 98 % of control; under setting [8], 119 % of control; under setting [13], 121 % of control; under setting [9], 119 % of control. The T/C is 119 % of control under setting [14] and 109 % of control (dose: 400.0 mg/kg/injection, schedule: Q04DX003 (ip), vehicle: saline).

As for `Cc1ccc(C(O)(CS(C)=O)c2ccco2)cc1` (stereo not given), the T/C reads like this: (dose: 50.0 mg/kg/injection, schedule: Q01DX009 (ip), vehicle: saline + alcohol) 98 % of control; (dose: 100.0 mg/kg/injection, schedule: Q01DX009 (ip), vehicle: saline + alcohol) 90 % of control.

`O=[N+]([O-])C1(CO)COC(c2ccccc2)OC1` (stereo not given): the T/C (dose: 100.0 mg/kg/injection, schedule: Q01DX009 (ip), vehicle: water) is 109 % of control; the T/C (dose: 100.0 mg/kg/injection, schedule: Q04DX003 (ip), vehicle: water) was 95 % of control; the T/C (dose: 200.0 mg/kg/injection, schedule: Q01DX009 (ip), vehicle: water) was 86 % of control; the T/C (dose: 200.0 mg/kg/injection, schedule: Q04DX003 (ip), vehicle: water) is 100 % of control; the T/C (dose: 400.0 mg/kg/injection, schedule: Q01DX009 (ip), vehicle: water) was 90 % of control; the T/C (dose: 400.0 mg/kg/injection, schedule: Q04DX003 (ip), vehicle: water) is 104 % of control.

For the molecule `CCOC(=O)C(C(=O)OCC)C1c2ccccc2C(=NO)c2ccccc21` (stereo not given), the T/C reads like this: (dose: 100.0 mg/kg/injection, schedule: Q01DX009 (ip), vehicle: Klucel (hydroxypropylcellulose) (HPC)) 100 % of control; under setting [15], 112 % of control; (dose: 200.0 mg/kg/injection, schedule: Q01DX009 (ip), vehicle: Klucel (hydroxypropylcellulose) (HPC)) 109 % of control; under setting [16], 104 % of control; (dose: 400.0 mg/kg/injection, schedule: Q01DX009 (ip), vehicle: Klucel (hydroxypropylcellulose) (HPC)) 109 % of control; under setting [17], 91 % of control.

In the case of `CO/C(O)=c1/nc2c(n(C)c1=N)=CCCC2`, the T/C runs as follows: under setting [7], 100 % of control; under setting [5], 104 % of control.

On to `Clc1cc(Cl)c(CBr)cc1CBr`, for which the T/C runs as follows: (dose: 3.13 mg/kg/injection, schedule: Q01DX009 (ip), vehicle: saline with Tween-80) 109 % of control; (dose: 6.25 mg/kg/injection, schedule: Q01DX009 (ip), vehicle: saline with Tween-80) 100 % of control; (dose: 12.5 mg/kg/injection, schedule: Q01DX009 (ip), vehicle: saline with Tween-80) 104 % of control.

Turning to `O=C(O)CNC(CSCc1ccccc1)CSCc1ccccc1`, the T/C runs as follows: under setting [18], 101 % of control; under setting [10], 93 % of control; under setting [4], 106 % of control; under setting [12], 112 % of control; under setting [1], 98 % of control; under setting [13], 111 % of control. Besides, the T/C was 97 % of control under setting [2], 116 % of control under setting [14] and 97 % of control under setting [3].

Consider `CN(C)CCCN1c2ccccc2Sc2ccc(Cl)cc21`, for which the T/C (dose: 6.25 mg/kg/injection, schedule: Q01DX009 (ip), vehicle: saline) is 109 % of control; the T/C (dose: 12.5 mg/kg/injection, schedule: Q01DX009 (ip), vehicle: saline) was 109 % of control; the T/C (dose: 12.5 mg/kg/injection, schedule: Q04DX003 (ip), vehicle: saline with Tween-80) was 104 % of control; the T/C (dose: 12.5 mg/kg/injection, schedule: Q04DX003 (ip), vehicle: saline) was 106 % of control; the T/C under setting [18] is 108 % of control; the T/C (dose: 25.0 mg/kg/injection, schedule: Q04DX003 (ip), vehicle: saline) is 89 % of control. Also, under setting [11], the T/C is 112 % of control.

`O=C1CC2c3ccccc3C1C1C(=O)OC(=O)C21` (stereo not given): the T/C runs as follows: under setting [15], 104 % of control; under setting [16], 90 % of control.

For `O=C(Nc1ccc([N+](=O)[O-])cc1)Nc1ccc([N+](=O)[O-])cc1`, the T/C is 86 % of control (dose: 50.0 mg/kg/injection, schedule: Q04DX003 (ip), vehicle: saline sonified); 86 % of control (dose: 100.0 mg/kg/injection, schedule: Q04DX003 (ip), vehicle: saline sonified); 90 % of control (dose: 200.0 mg/kg/injection, schedule: Q04DX003 (ip), vehicle: saline sonified).

Consider `CCOC(=O)c1cc(OC(C)=O)c2c(ccc3ccccc32)c1C`, for which the T/C was 91 % of control under setting [15] and 91 % of control under setting [17].
